# Assay results as given in US9212201B2, “Antifungal and antiparasitic polyene macrolides” (priority 2010, dated 2015).
# Where two headings read alike, the source gives them in different places.
# Experiments:
# Water solubility = assay type: physicochemical; settings: in words
# C. albicans = assay: In vitro antifungal susceptibility CLSI M27-A2 (MIC, MFC); assay type: cell-based; settings: C. albicans (10)
# C. parapsilosis = assay: as above; assay type: cell-based; settings: C. parapsilosis (10)
# C. lusitaniae = assay: as above; assay type: cell-based; settings: C. lusitaniae (10)
# C. guilliermondii = assay: as above; assay type: cell-based; settings: C. guilliermondii (2)
# C. dubliniensis = assay: In vitro antifungal susceptibility CLSI M27-A2 (MIC); assay type: cell-based; settings: C. dubliniensis (5)
# Procedure: (§1) In addition, MFC ([…]) was done for each species. The geometric mean (GM) was calculated for each isolate using all three results. All testing was performed in triplicate to verify the reproducibility of the data.
# Eighty-three Candida strains were evaluated. This included 12 different Candida species, which are the species that are most commonly involved in the majority of candidal infections in humans. The species include ten isolates of C. albicans, C. glabrata, C. parapsilosis, C. tropicalis, C. krusei, C. lusitaniae, and C. kefyr, along with five isolates of C. dubliniensis, and two isolates each of C. guilliermondii and C. rugosa. In addition, there was also one isolate each of C. sake, C. lipolytica, C. sphaerica and C. norvegica.
# [1] = system: Other Candida species (C. lipolytica, C. sake, C. sphaerica, C. norvegica); assay: In vitro antifungal susceptibility CLSI M27-A2 (MIC, MFC); assay type: cell-based; settings: Other Candida spp. (4)
# A. flavus = assay: In vitro antifungal susceptibility CLSI M38-A (MIC); assay type: cell-based; settings: 5 isolates
# Procedure: as §1
# (§2) A total of 31 isolates of Aspergillus were evaluated. This included six different species of Aspergillus which included six strains of A. fumigatus, and 5 strains of A. flavus, A. terreus, A. niger and A. glaucus.
# A. fumigatus = assay: as above; assay type: cell-based; settings: A. fumigates, 6 isolates
# Procedure: as §1, §2
# A. glaucus = assay: as above; assay type: cell-based; settings: 5 isolates
# Procedure: as §1, §2
# A. niger = assay: as above; assay type: cell-based; settings: 5 isolates
# Procedure: as §1, §2
# A. terreus = assay: as above; assay type: cell-based; settings: 5 isolates
# Procedure: as §1, §2
# A. versicolor = assay: as above; assay type: cell-based; settings: 5 isolates
# Procedure: as §1, §2
# Acremonium spp. = assay: as above; assay type: cell-based; settings: 5 isolates
# Procedure: as §1
# (§3) Several of the more common molds were also tested and evaluated including five strains of Alternaria, Cladosporium, Scopulariopsis, Acremonium, and Paecilomyces. Also evaluated were some of the more uncommon fungi such as Exophilia jeanselmei (3), Emmonsia parvum (Chrysporium parvum) (2) and Epioccum spp. (2). Conventional ATCC strains of different Candida and Aspergillus species were used as controls.
# Alternaria spp. = assay: as above; assay type: cell-based; settings: 5 isolates
# Procedure: as §1, §3
# Cladosporium spp. = assay: as above; assay type: cell-based; settings: 5 isolates
# Procedure: as §1, §3
# [2] = system: Emmonsia parvum (Chrysporium parvum); assay: as above; assay type: cell-based; settings: 2 isolates
# Procedure: as §1, §3
# Epioccum spp. = assay: as above; assay type: cell-based; settings: 2 isolates
# Procedure: as §1, §3
# Paecilomyces spp. = assay: as above; assay type: cell-based; settings: 5 isolates
# Procedure: as §1, §3
# Scopulariopsis spp. = assay: as above; assay type: cell-based; settings: 5 isolates
# Procedure: as §1, §3
# Coccidioides sp = assay type: cell-based
# Blastomyces dermatitidis = assay: Broth macrodilution MIC/MFC against endemic fungal pathogens; assay type: cell-based; settings: for MFC: >96% kill of the inoculum
# Naegleria fowleri = assay: Primary amoebic meningoencephalitis in mice; assay type: in vivo, Balb/c mice; settings: 9 mg/kg/day for a total of 10 days
# [3] = system: Candida albicans (ATCC 44858); settings: 3 mg/kg PO; 15-day observation
# [4] = system: L. donovani intracellular amastigotes
# [5] = human, in vivo; cited from earlier work
# [6] = Blastomyces dermatitidis isolate 1
# [7] = Blastomyces dermatitidis isolate 2
structure (smiles),measurement,setting,value
"C[C@@H]1[C@H](O)[C@@H](C)/C=C/C=C/C=C/C=C/C=C/C=C/C=C/[C@H](O[C@@H]2O[C@H](C)[C@@H](O)[C@H](N)[C@@H]2O)C[C@@H]2O[C@](O)(C[C@@H](O)C[C@@H](O)[C@H](O)CC[C@@H](O)C[C@@H](O)CC(=O)O[C@H]1C)C[C@H](O)[C@H]2C(=O)O [Amphotericin B, amphotericin B]",Water solubility,Water solubility,insoluble
same,GM (geometric mean MIC),C. albicans,0.612 µg/mL
same,MFC,C. albicans,1 µg/mL
same,MIC50,C. albicans,0.5 µg/mL
same,MIC90,C. albicans,1 µg/mL
same,MIC Range,C. albicans,0.12 to 1 µg/mL
same,GM (geometric mean MIC),C. parapsilosis,0.7 µg/mL
same,MFC,C. parapsilosis,2 µg/mL
same,MIC50,C. parapsilosis,0.5 µg/mL
same,MIC90,C. parapsilosis,1 µg/mL
same,MIC Range,C. parapsilosis,0.5 to 1.0 µg/mL
same,GM (geometric mean MIC),C. lusitaniae,0.575 µg/mL
same,MFC,C. lusitaniae,0.5 µg/mL
same,MIC50,C. lusitaniae,0.5 µg/mL
same,MIC90,C. lusitaniae,1.0 µg/mL
same,MIC Range,C. lusitaniae,0.25 to 1.0 µg/mL
same,GM (geometric mean MIC),C. guilliermondii,0.5 µg/mL
same,MFC,C. guilliermondii,1 µg/mL
same,MIC Range,C. guilliermondii,0.5 µg/mL
same,GM (geometric mean MIC),C. dubliniensis,0.4 µg/mL
same,MIC50,C. dubliniensis,0.5 µg/mL
same,MIC90,C. dubliniensis,1 µg/mL
same,MIC Range,C. dubliniensis,0.125 to 1 µg/mL
same,GM (geometric mean MIC),[1],0.95 µg/mL
same,MFC,[1],2 µg/mL
same,MIC50,[1],1 µg/mL
same,MIC Range,[1],0.5 to 1.0 µg/mL
same,GM,A. flavus,4.8 µg/mL
same,MIC50,A. flavus,2 µg/mL
same,MIC Range,A. flavus,2 to 16 µg/mL
same,GM,A. fumigatus,1.58 µg/mL
same,MIC50,A. fumigatus,2 µg/mL
same,MIC Range,A. fumigatus,0.5 to 2 µg/mL
same,GM,A. glaucus,0.7 µg/mL
same,MIC50,A. glaucus,0.5 µg/mL
same,MIC Range,A. glaucus,0.25 to 1 µg/mL
same,GM,A. niger,0.8 µg/mL
same,MIC50,A. niger,1 µg/mL
same,MIC Range,A. niger,0.5 to 1 µg/mL
same,GM,A. terreus,2.0 µg/mL
same,MIC50,A. terreus,2 µg/mL
same,MIC Range,A. terreus,2 to 4 µg/mL
same,GM,A. versicolor,0.9 µg/mL
same,MIC50,A. versicolor,1 µg/mL
same,MIC Range,A. versicolor,0.25 to 2 µg/mL
same,GM,Acremonium spp.,8 µg/mL
same,MIC50,Acremonium spp.,8 µg/mL
same,MIC Range,Acremonium spp.,8 µg/mL
same,GM,Alternaria spp.,0.25 µg/mL
same,MIC50,Alternaria spp.,0.25 µg/mL
same,MIC Range,Alternaria spp.,0.25 to 0.5 µg/mL
same,GM,Cladosporium spp.,0.7 µg/mL
same,MIC50,Cladosporium spp.,0.25 µg/mL
same,MIC Range,Cladosporium spp.,0.25 to 0.5 µg/mL
same,GM,[2],0.25 µg/mL
same,MIC50,[2],0.25 µg/mL
same,MIC Range,[2],0.25 µg/mL
same,GM,Epioccum spp.,1 µg/mL
same,MIC50,Epioccum spp.,1 µg/mL
same,MIC Range,Epioccum spp.,1 µg/mL
same,GM,Paecilomyces spp.,1.4 µg/mL
same,MIC50,Paecilomyces spp.,1 µg/mL
same,MIC Range,Paecilomyces spp.,0.5 to 2 µg/mL
same,GM,Scopulariopsis spp.,0.95 µg/mL
same,MIC50,Scopulariopsis spp.,1 µg/mL
same,MIC Range,Scopulariopsis spp.,0.5 to 1 µg/mL
same,MFC higher than corifungin,Coccidioides sp; 2 C isolates,≥ 4 fold
same,MFC,Coccidioides sp; 3 of the C isolates,≥ 8 µg/mL
same,MIC,Coccidioides sp; 3 of the C isolates,4 µg/mL
same,MIC,Coccidioides sp; Coccidioides sp isolate 1,2 µg/mL
same,MFC,"Coccidioides sp; Coccidioides sp isolate 1, >96% kill of the inoculum",8 µg/mL
same,MIC,Coccidioides sp; Coccidioides sp isolate 2,4 µg/mL
same,MFC,"Coccidioides sp; Coccidioides sp isolate 2, >96% kill of the inoculum",8 µg/mL
same,MIC,Coccidioides sp; Coccidioides sp isolate 3,1 µg/mL
same,MFC,"Coccidioides sp; Coccidioides sp isolate 3, >96% kill of the inoculum",> 8 µg/mL
same,MIC,Coccidioides sp; Coccidioides sp isolate 4,4/4 mcg/mL
same,MFC,"Coccidioides sp; Coccidioides sp isolate 4, >96% kill of the inoculum",4/4 mcg/mL
same,MIC,Coccidioides sp; Coccidioides sp isolate 5,4/4 mcg/mL
same,MFC,"Coccidioides sp; Coccidioides sp isolate 5, >96% kill of the inoculum",4/4 mcg/mL
same,MIC,Blastomyces dermatitidis; [6],2/2 mcg/mL
same,MFC,Blastomyces dermatitidis; [6],2/2 mcg/mL
same,MIC,Blastomyces dermatitidis; [7],1/1 mcg/mL
same,MFC,Blastomyces dermatitidis; [7],1/1 mcg/mL
same,survival,Naegleria fowleri,no improvement in survival over the control
same,increase in survival rate,[3],80%
same,IC50,[4],50 nM
same,patients with nephrotoxicity,[5],≤ 80%
